{"source": "paper PMC8523698", "about": "“Preclinical characterization of an intravenous coronavirus 3CL protease inhibitor for the potential treatment of COVID19” (Nature Communications, 2021)", "key": {"[1]": {"experiment": "Rat pharmacokinetic study", "conditions": "for AUC(0-inf): AUCinf; for Vd: Vdss"}, "[2]": {"biological_target": "CYP2C9 (Homo sapiens, UniProt P11712)", "sequence (P11712 whole entry)": "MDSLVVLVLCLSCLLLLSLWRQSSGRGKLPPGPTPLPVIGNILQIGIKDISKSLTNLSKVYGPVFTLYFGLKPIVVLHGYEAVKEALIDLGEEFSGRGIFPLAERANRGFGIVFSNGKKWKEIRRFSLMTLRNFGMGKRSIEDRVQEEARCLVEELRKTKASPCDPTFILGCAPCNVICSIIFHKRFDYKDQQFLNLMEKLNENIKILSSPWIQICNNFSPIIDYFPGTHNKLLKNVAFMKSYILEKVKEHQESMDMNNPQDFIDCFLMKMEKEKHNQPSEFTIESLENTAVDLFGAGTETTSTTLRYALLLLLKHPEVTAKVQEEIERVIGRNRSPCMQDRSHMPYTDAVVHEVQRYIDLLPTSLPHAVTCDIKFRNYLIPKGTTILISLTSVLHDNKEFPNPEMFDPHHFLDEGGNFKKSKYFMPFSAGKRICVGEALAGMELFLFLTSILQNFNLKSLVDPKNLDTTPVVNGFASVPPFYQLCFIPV", "experiment": "Reversible CYP inhibition in human liver microsomes"}, "[3]": {"conditions": "male, Wistar-Hannover, rat, plasma, iv, 2 mg/kg, Mean, PF-00835231 active dosed 2mg/kg intravenous"}, "[4]": {"conditions": "male, Wistar-Hannover, rat, plasma, iv, 2 mg/kg, PF-00835231 active dosed 2mg/kg intravenous, individual rats"}, "[5]": {"conditions": "rat, PF-00835231 active dosed 2mg/kg intravenous, individual rats, 2 mg/kg"}}, "note": "Where “and” joins values, the source holds several entries; their conditions need not be identical. Equal values may be shown once."}
{"smiles": "COc1cccc2[nH]c(C(=O)N[C@@H](CC(C)C)C(=O)N[C@@H](C[C@@H]3CCNC3=O)C(=O)CO)cc12", "note": "[PF-00835231]", "values": [{"measurement": "Vdss", "setting": "[1]; Rat, 2mg/kg intravenous, individual animals, 2 mg/kg", "result": "1.02 L/kg and 0.58 L/kg"}, {"measurement": "AUC(0-inf)", "setting": "[1]; [3]", "result": 1250, "unit": "ng·h/mL"}, {"measurement": "AUC(0-inf)", "setting": "[1]; [4]", "result": 1230, "unit": "ng·h/mL"}, {"measurement": "clearance", "setting": "[1]; male, Wistar-Hannover, rat, plasma, iv, 2 mg/kg, Clearance, Mean, PF-00835231 active dosed 2mg/kg intravenous", "result": 27, "unit": "mL/min/kg"}, {"measurement": "clearance", "setting": "[1]; male, Wistar-Hannover, rat, plasma, iv, 2 mg/kg, Clearance, PF-00835231 active dosed 2mg/kg intravenous, individual rats", "result": 27.1, "unit": "mL/min/kg"}, {"measurement": "half-life", "setting": "[1]; male, Wistar-Hannover, rat, plasma, iv, 2 mg/kg, Half life, Mean, PF-00835231 active dosed 2mg/kg intravenous", "result": 43.1, "unit": "min"}, {"measurement": "half-life", "setting": "[1]; male, Wistar-Hannover, rat, plasma, iv, 2 mg/kg, Half life, PF-00835231 active dosed 2mg/kg intravenous, individual rats", "result": 39.2, "unit": "min"}, {"measurement": "half-life", "setting": "[1]; male, Wistar-Hannover, rat, plasma, iv, 2 mg/kg, Terminal T1/2, rat IV, PF-07304814 […] (n=2, range), PF-00835231 2mg/kg (n=3, ± SD)", "result": "< 120", "unit": "min"}, {"measurement": "Vd", "setting": "[1]; male, Wistar-Hannover, rat, plasma, iv, 2 mg/kg, 2mg/kg intravenous, individual animals", "result": 0.637, "unit": "L/kg"}, {"measurement": "Vd", "setting": "[1]; male, Wistar-Hannover, rat, plasma, iv, 2 mg/kg, Mean, 2mg/kg intravenous", "result": 0.746, "unit": "L/kg"}, {"measurement": "Vd", "setting": "[1]; [3]", "result": 0.746, "unit": "L/kg"}, {"measurement": "Vd", "setting": "[1]; [4]", "result": 0.637, "unit": "L/kg"}, {"measurement": "Vd", "setting": "[1]; male, Wistar-Hannover, rat, plasma, iv, 2 mg/kg, Vdss input", "result": 0.75, "unit": "L/kg"}, {"measurement": "Vd", "setting": "[1]; male, Wistar-Hannover, rat, plasma, iv, 2 mg/kg, rat IV, PF-07304814 […] (n=2, range), PF-00835231 2mg/kg (n=3, ± SD)", "result": "< 1.5", "unit": "L/kg"}, {"measurement": "clearance", "setting": "[1]; male, Wistar-Hannover, rat, plasma, iv, CL, rat IV, PF-07304814 […] (n=2, range), PF-00835231 2mg/kg (n=3, ± SD)", "result": "27 ± 3.1", "unit": "mL/min/kg"}, {"measurement": "half-life", "setting": "[1]; male, Wistar-Hannover, rat, plasma, iv, Terminal T1/2, rat IV, PF-07304814 […] (n=2, range), PF-00835231 2mg/kg (n=3, ± SD)", "result": "43.2 ± 7.2", "unit": "min"}, {"measurement": "Vd", "setting": "[1]; male, Wistar-Hannover, rat, plasma, iv, rat IV, PF-07304814 […] (n=2, range), PF-00835231 2mg/kg (n=3, ± SD)", "result": "0.75 ± 0.24", "unit": "L/kg"}, {"measurement": "bioavailability", "setting": "[1]; male, Wistar-Hannover, rat, plasma, po, 2 mg/kg, Oral F%, rat, 2mg/kg PO vs IV", "result": "1.4 ± 0.76", "unit": "%"}, {"measurement": "AUC(0-t)", "setting": "[1]; male, Wistar-Hannover, rat, plasma, po, 5 mg/kg, AUCt, Mean, PF-00835231 5mg/kg PO dose", "result": 12.8, "unit": "ng·h/mL"}, {"measurement": "Urine Concn", "setting": "[1]; rat urine 0-7 h, PF-00835231 active dosed 2mg/kg intravenous, individual rats, 2 mg/kg", "result": "29200 ng/mL and 3180 ng/mL and 6320 ng/mL"}, {"measurement": "Urine Concn", "setting": "[1]; rat urine 7-24 h, PF-00835231 active dosed 2mg/kg intravenous, individual rats, 2 mg/kg", "result": "234 ng/mL and 85.6 ng/mL and 368 ng/mL"}, {"measurement": "AUCt", "setting": "[1]; rat, PF-00835231 5mg/kg PO dose, individual rats, 5 mg/kg", "result": "5.75 ng·h/mL and 18.5 ng·h/mL and 14.1 ng·h/mL"}, {"measurement": "AUCinf", "setting": "[1]; [5]", "result": "1110 ng·h/mL and 1400 ng·h/mL"}, {"measurement": "Half life", "setting": "[1]; [5]", "result": "51.4 min and 38.7 min"}, {"measurement": "Vdss", "setting": "[1]; [5]", "result": "1.02 L/kg and 0.58 L/kg"}, {"measurement": "clearance", "setting": "[1]; [5]", "result": "30 mL/min/kg and 23.8 mL/min/kg"}, {"measurement": "Oral F%", "setting": "[1]; rat, 2mg/kg PO vs IV, 2 mg/kg", "result": "< 2", "unit": "%"}, {"measurement": "Percent of Control Activity", "setting": "[2]; CYP 2C9, 0.1 µM, 30-Minute Preincubation, 0.1 µM", "result": "101.5% and 104.7%"}, {"measurement": "Percent of Control Activity", "setting": "[2]; CYP 2C9, 0.1 µM, Zero-Minute Preincubation, 0.1 µM", "result": "113.8% and 92.8%"}, {"measurement": "Percent of Control Activity", "setting": "[2]; CYP 2C9, 0.214 µM, 30-Minute Preincubation, 0.214 µM", "result": "103.1% and 106.7%"}, {"measurement": "Percent of Control Activity", "setting": "[2]; CYP 2C9, 0.214 µM, Zero-Minute Preincubation, 0.214 µM", "result": "100.5% and 101.3%"}, {"measurement": "Percent of Control Activity", "setting": "[2]; CYP 2C9, 0.979 µM, 30-Minute Preincubation, 0.979 µM", "result": "104.6% and 107.1%"}, {"measurement": "Percent of Control Activity", "setting": "[2]; CYP 2C9, 0.979 µM, Zero-Minute Preincubation, 0.979 µM", "result": 107.0, "unit": "%"}, {"measurement": "Percent of Control Activity", "setting": "[2]; CYP 2C9, 2.09 µM, 30-Minute Preincubation, 2.09 µM", "result": "102.9% and 114.0%"}, {"measurement": "Percent of Control Activity", "setting": "[2]; CYP 2C9, 2.09 µM, Zero-Minute Preincubation, 2.09 µM", "result": 97.5, "unit": "%"}, {"measurement": "Percent of Control Activity", "setting": "[2]; CYP 2C9, 4.48 µM, 30-Minute Preincubation, 4.48 µM", "result": "102.5% and 104.2%"}, {"measurement": "Percent of Control Activity", "setting": "[2]; CYP 2C9, 4.48 µM, Zero-Minute Preincubation, 4.48 µM", "result": "95.3% and 94.9%"}, {"measurement": "Percent of Control Activity", "setting": "[2]; CYP 2C9, 20.5 µM, 30-Minute Preincubation, 20.5 µM", "result": "101.2% and 96.3%"}, {"measurement": "Percent of Control Activity", "setting": "[2]; CYP 2C9, 20.5 µM, Zero-Minute Preincubation, 20.5 µM", "result": 93.2, "unit": "%"}, {"measurement": "Percent of Control Activity", "setting": "[2]; CYP 2C9, 43.8 µM, 30-Minute Preincubation, 43.8 µM", "result": "91.9% and 89.1%"}, {"measurement": "Percent of Control Activity", "setting": "[2]; CYP 2C9, 43.8 µM, Zero-Minute Preincubation, 43.8 µM", "result": "85.3% and 88.3%"}, {"measurement": "Percent of Control Activity", "setting": "[2]; CYP 2C9, 93.5 µM, 30-Minute Preincubation, 93.5 µM", "result": "76.4% and 76.0%"}, {"measurement": "Percent of Control Activity", "setting": "[2]; CYP 2C9, 93.5 µM, Zero-Minute Preincubation, 93.5 µM", "result": "76.7% and 76.3%"}, {"measurement": "Percent of Control Activity", "setting": "[2]; CYP 2C9, 200 µM, 30-Minute Preincubation, 200 µM", "result": "74.9% and 59.1%"}, {"measurement": "Percent of Control Activity", "setting": "[2]; CYP 2C9, 200 µM, Zero-Minute Preincubation, 200 µM", "result": 71.9, "unit": "%"}, {"measurement": "IC50", "setting": "[2]; human, microsomes, pH 7.4", "result": "> 200", "unit": "µM"}, {"measurement": "activity at 0.1 µM", "setting": "[2]; human, microsomes, pH 7.4, Percent of Control Activity, CYP 2C9, 0.1 µM, 30-Minute Preincubation", "result": 108, "unit": "%"}, {"measurement": "activity at 0.214 µM", "setting": "[2]; human, microsomes, pH 7.4, Percent of Control Activity, CYP 2C9, 0.214 µM, 30-Minute Preincubation", "result": 102, "unit": "%"}, {"measurement": "activity at 0.214 µM", "setting": "[2]; human, microsomes, pH 7.4, Percent of Control Activity, CYP 2C9, 0.214 µM, Zero-Minute Preincubation", "result": 102, "unit": "%"}, {"measurement": "activity at 0.979 µM", "setting": "[2]; human, microsomes, pH 7.4, Percent of Control Activity, CYP 2C9, 0.979 µM, 30-Minute Preincubation", "result": 103, "unit": "%"}, {"measurement": "activity at 0.979 µM", "setting": "[2]; human, microsomes, pH 7.4, Percent of Control Activity, CYP 2C9, 0.979 µM, Zero-Minute Preincubation", "result": 99.1, "unit": "%"}, {"measurement": "activity at 2.09 µM", "setting": "[2]; human, microsomes, pH 7.4, Percent of Control Activity, CYP 2C9, 2.09 µM, 30-Minute Preincubation", "result": 99.5, "unit": "%"}, {"measurement": "activity at 2.09 µM", "setting": "[2]; human, microsomes, pH 7.4, Percent of Control Activity, CYP 2C9, 2.09 µM, Zero-Minute Preincubation", "result": 110, "unit": "%"}, {"measurement": "activity at 4.48 µM", "setting": "[2]; human, microsomes, pH 7.4, Percent of Control Activity, CYP 2C9, 4.48 µM, 30-Minute Preincubation", "result": 102, "unit": "%"}, {"measurement": "activity at 4.48 µM", "setting": "[2]; human, microsomes, pH 7.4, Percent of Control Activity, CYP 2C9, 4.48 µM, Zero-Minute Preincubation", "result": 98.5, "unit": "%"}, {"measurement": "activity at 20.5 µM", "setting": "[2]; human, microsomes, pH 7.4, Percent of Control Activity, CYP 2C9, 20.5 µM, 30-Minute Preincubation", "result": 96.7, "unit": "%"}, {"measurement": "activity at 20.5 µM", "setting": "[2]; human, microsomes, pH 7.4, Percent of Control Activity, CYP 2C9, 20.5 µM, Zero-Minute Preincubation", "result": 104, "unit": "%"}]}
